Key:
interleukin-6 (IL6) = assay: Plasma IL6 by ELISA; type: in vivo, human; conditions: baseline median 8.22pg/ml
[1] = test system: phospho-Akt (Ser473) and phospho-Akt (T308); assay: IHC of KS biopsies for phospho-Akt; type: in vivo, human; conditions: KS biopsies on treatment vs baseline
Kaposi sarcoma [2] = assay: Clinical response of KS to rapamycin; type: in vivo, human
CD4 T-lymphocyte counts = assay: CD4+ T-lymphocyte count monitoring; type: in vivo, human; conditions: 6 study participants with follow-up tests; median baseline 826
Ki-67 = assay: IHC of KS biopsies for Ki-67; type: in vivo, human; conditions: KS biopsies on treatment vs baseline
Kaposi sarcoma [3] = conditions: HIV-uninfected renal allograft recipients; trough 6-10ng/ml; cited from earlier work
HIV [4] = assay: HIV viral load monitoring; type: in vivo, human; conditions: during rapamycin treatment with ART
P-glycoprotein = conditions: cited from earlier work
HIV [5] = conditions: in culture; cited from earlier work
phospho-RPS6 (pRPS6) = assay: IHC of KS biopsies for phospho-RPS6; type: in vivo, human
[6] = test system: KSHV latency associated nuclear antigen (LANA); assay: IHC of KS biopsies for KSHV LANA; type: in vivo, human; conditions: KS biopsies on treatment vs baseline
[7] = test system: vascular endothelial growth factor (VEGF); assay: Plasma VEGF by ELISA; type: in vivo, human
[8] = Safety and adverse event monitoring
[9] = test system: cytochrome P450 3A4 (CYP3A4); conditions: cited from earlier work
[10] = Rapamycin trough blood concentrations; type: in vivo, human
KSHV = KSHV plasma viral load by quantitative real-time PCR; type: in vivo, human

## CO[C@H]1C[C@@H]2CC[C@@H](C)[C@@](O)(O2)C(=O)C(=O)N2CCCC[C@H]2C(=O)O[C@H]([C@H](C)C[C@@H]2CC[C@@H](O)[C@H](OC)C2)CC(=O)[C@H](C)/C=C(\C)[C@@H](O)[C@@H](OC)C(=O)[C@H](C)C[C@H](C)/C=C/C=C/C=C/1C [rapamycin]
interleukin-6 (IL6)
  changes in plasma IL6 concentrations during treatment: No significant changes
[1]
  changes in Akt phosphorylation at T308 or Ser473: no significant changes
Kaposi sarcoma [2]; of seven
  number of patients with stable disease as best response: Three
Kaposi sarcoma [2]; of seven, all receiving PI/r regimens
  number of patients with partial KS response: Three
Kaposi sarcoma [2]; patient 001, Lopinavir/r ART, maintenance 0.2 mg biw
  Best Response of KS to Rapamycin: Partial
Kaposi sarcoma [2]; patient 002, Atazanavir/r ART, maintenance 0.2 mg biw
  Best Response of KS to Rapamycin: Partial
Kaposi sarcoma [2]; patient 003, Atazanavir/r ART, maintenance 0.3 mg tiw
  Best Response of KS to Rapamycin: Stable
Kaposi sarcoma [2]; patient 004, Nevirapine ART, maintenance 2.8 mg daily
  Best Response of KS to Rapamycin: Progression
Kaposi sarcoma [2]; patient 005, Lopinavir/r ART, maintenance 0.1 mg biw
  Best Response of KS to Rapamycin: Partial
Kaposi sarcoma [2]; patient 006, Efavirenz ART, maintenance 6.7 mg daily
  Best Response of KS to Rapamycin: Stable
Kaposi sarcoma [2]; patient 007, Efavirenz ART, maintenance 2.3 mg daily
  Best Response of KS to Rapamycin: Stable
Kaposi sarcoma [2]; three responding patients
  response duration: 43 to 50 weeks
  time to partial KS response: 3 to 9 weeks
CD4 T-lymphocyte counts
  CD4 counts during treatment: > 400 cells/μL
Ki-67
  changes in Ki-67 staining: no significant changes
Kaposi sarcoma [3]
  KS outcome after change from cyclosporin A-based regimen to rapamycin: KS regressed
HIV [4]
  changes in HIV VL: no consistent changes
P-glycoprotein
  substrate status for P-glycoprotein: substrate
HIV [5]
  effect on HIV infectivity and transcription: inhibits HIV infectivity and transcription in culture
phospho-RPS6 (pRPS6); on-treatment KS biopsies, all patients, score 0 to 4
  overall changes from baseline in staining scores (pRPS6, phospho-Akt): no significant changes
phospho-RPS6 (pRPS6); subject #5, after 50 days on drug vs baseline
  pRPS6 reactivity within KS tumor cells and overlying epithelium: decreased pRPS6 reactivity
phospho-RPS6 (pRPS6); three of four subjects biopsied at day 50 or later, all on PI/r-based ART
  pRPS6 staining compared to baseline: decreased pRPS6 staining
[6]
  changes in LANA staining: no significant changes
[7]
  changes in plasma VEGF concentrations during treatment: No significant changes
[8]; all seven patients experienced adverse events
  grade of most adverse events: most were grade 1
[8]; patient #4, Nevirapine ART
  serious adverse event: extensive grade 3 superficial vein thrombus requiring anticoagulation, considered possibly related to rapamycin
[8]; patient #5, pneumonia and dermatomal Herpes zoster
  infectious adverse events: 2 separate grade 2 infectious episodes without neutropenia
[8]; patient #6, without neutropenia, resolved without treatment
  infectious adverse events: grade 2 upper respiratory infection
[8]; seven HIV-infected KS patients on ART, trough target 5-10 ng/mL
  overall tolerability: generally well tolerated
[9]
  substrate status for CYP3A4: substrate
[10]; first patient, ritonavir-boosted lopinavir regimen, from 172ng/mL
  time for blood levels to decline to acceptable levels after stopping rapamycin: three
[10]; human, whole blood, oral, 2 mg
  concentration at 7 days: 123 ng/mL
  concentration at 14 days: 172 ng/mL
[10]; patient 001, Lopinavir/r ART, initial 2 mg daily
  Maximum Rapamycin Trough Level by LCMSMS: 172 ng/mL
[10]; patient 002, Atazanavir/r ART, initial 0.3 mg biw
  Maximum Rapamycin Trough Level by LCMSMS: 64.4 ng/mL
[10]; patient 003, Atazanavir/r ART, initial 0.3 mg biw
  Maximum Rapamycin Trough Level by LCMSMS: 16.8 ng/mL
[10]; patient 004, Nevirapine ART, initial 4.9 mg daily
  Maximum Rapamycin Trough Level by LCMSMS: 13.1 ng/mL
[10]; patient 005, Lopinavir/r ART, initial 0.4 mg biw
  Maximum Rapamycin Trough Level by LCMSMS: 19.2 ng/mL
[10]; patient 006, Efavirenz ART, initial 4.5 mg daily
  Maximum Rapamycin Trough Level by LCMSMS: 7.4 ng/mL
[10]; patient 007, Efavirenz ART, initial 3.7 mg daily
  Maximum Rapamycin Trough Level by LCMSMS: 11.9 ng/mL
KSHV
  changes in KSHV VL during rapamycin treatment: no significant changes
KSHV; baseline median 214, P=0.156
  median change in KSHV VL during treatment: -138.8 copies/ml

Source: publication PMC3302934 (Journal of Acquired Immune Deficiency Syndromes (1999), 2012)
